Data as given in patent publication US20030166706A1, “Method of treating osteoarthritis” (priority 2002, published 2003).
“Also recorded” adds a separate entry of the source. Marks after values point to notes of the source that are not given here.

Legend:
[1] = tested on: Monosodium Iodoacetate-induced Osteoarthritis in Rat; test: Monosodium iodoacetate-induced osteoarthritis in rat model of cartilage damage (MIA Rat); type: in vivo, male Wistar rats
[2] = cited from earlier work
[3] = 4 weeks study, subcutaneously via osmotic pumps, 10 mg/kg/day
[4] = 4 weeks study, subcutaneously via osmotic pumps, 30 mg/kg/day
[5] = 4 weeks study, subcutaneously via osmotic pumps, 100 mg/kg/day

Structure (SMILES): O=C(O)[C@@H]1C[C@@H]2CCCC[C@@H]2N1 [[2(S), 3a(S), 7a(S)]-2,3,3a,4,5,6,7,7a-octahydroindol-2-carboxylic acid]
- degree of structural damage to the cartilage ([1]; 10 mg/kg PO, BID, 4 weeks post-MIA): significantly decreased
- degree of structural damage to the cartilage ([1]; 30 mg/kg PO, BID, 4 weeks post-MIA): significantly decreased
- IJFL (Inhibition of Joint Function Limitation) (% +/− SEM) ([1]; 2 weeks study, subcutaneously via osmotic pumps, 90 mg/kg/day, p < 0.05 versus vehicle): 85 +/− 3%
- SDCES (Significant Decrease In Cartilage Erosion Severity) [1, 3]: No
- SIJWHLE (Significant Increase in Joints Without Hind Limb Erosion) [1, 3]: No
- IJFL (Inhibition of Joint Function Limitation) (% +/− SEM) ([1]; 4 weeks study, subcutaneously via osmotic pumps, 10 mg/kg/day, Not statistically significant): 28 +/− 14^e %
- SDCES (Significant Decrease In Cartilage Erosion Severity) [1, 4]: No
- SIJWHLE (Significant Increase in Joints Without Hind Limb Erosion) [1, 4]: No
- IJFL (Inhibition of Joint Function Limitation) (% +/− SEM) ([1]; 4 weeks study, subcutaneously via osmotic pumps, 30 mg/kg/day, p < 0.05 versus vehicle): 94 +/− 10%
- SDCES (Significant Decrease In Cartilage Erosion Severity) [1, 5]: No
- SIJWHLE (Significant Increase in Joints Without Hind Limb Erosion) [1, 5]: No
- IJFL (Inhibition of Joint Function Limitation) (% +/− SEM) ([1]; 4 weeks study, subcutaneously via osmotic pumps, 100 mg/kg/day, p < 0.05 versus vehicle): 78 +/− 3%
- inhibiting cartilage damage and treating osteoarthritis, from analysis of proteoglycan loss ([1]; MIA Rat data that are expected): effective
- joint pain ([1]; all doses, 3 to 30 mg/kg PO, BID, 4 weeks post-MIA): significantly decreased joint pain
- preventing or treating cartilage damage ([1]; conclusion from MIA Rat data of Tables 1 and 2): effective
- joint function limitations as defined by a reduction in differential hind-limb weight bearing ([1]; dosed orally two times per day): decrease joint function limitations
- SIJWHLE (Significant Increase in Joints Without Hind Limb Erosion) ([1]; four week study, oral, two times per day, 3 mg/kg per dose, Cochran-Armitage Trend test): No
- SDCES (Significant Decrease In Cartilage Erosion Severity) ([1]; four week study, oral, two times per day, 3 mg/kg per dose, Ridit Analysis): No
- IJFL (Inhibition of Joint Function Limitation) (% +/− SEM) ([1]; four week study, oral, two times per day, 3 mg/kg per dose, p < 0.05 versus vehicle): 62 +/− 6%
- SIJWHLE (Significant Increase in Joints Without Hind Limb Erosion) ([1]; four week study, oral, two times per day, 10 mg/kg per dose, Cochran-Armitage Trend test, actual p = 0.046): Yes^f
- SDCES (Significant Decrease In Cartilage Erosion Severity) ([1]; four week study, oral, two times per day, 10 mg/kg per dose, Ridit Analysis, 10 mg/kg): significantly decrease cartilage erosion severity and No
- IJFL (Inhibition of Joint Function Limitation) (% +/− SEM) ([1]; four week study, oral, two times per day, 10 mg/kg per dose, p < 0.05 versus vehicle): 70 +/− 9%
- SIJWHLE (Significant Increase in Joints Without Hind Limb Erosion) ([1]; four week study, oral, two times per day, 30 mg/kg per dose, Cochran-Armitage Trend test, actual p = 0.020): Yes^e
- IJFL (Inhibition of Joint Function Limitation) (% +/− SEM) ([1]; four week study, oral, two times per day, 30 mg/kg per dose, p < 0.05 versus vehicle): 83 +/− 7%
- SDCES (Significant Decrease In Cartilage Erosion Severity) ([1]; four week study, oral, two times per day, 30 mg/kg per dose, p < 0.05 versus vehicle (Ridit Analysis), actual p = 0.021, 30 mg/kg): significantly decrease cartilage erosion severity; also recorded: Yes^d

Structure (SMILES): Cc1onc(-c2ccccc2)c1-c1ccc(S(N)(=O)=O)cc1 [valdecoxib, 4-(5-methyl-3-phenyl-4-isoxazolyl)-benzenesulfonamide]
- tolerability ([2]; combined analysis of various clinical studies): well tolerated
- overall upper gastrointestinal safety profile (ulcers, perforations, obstructions and GI bleeds) ([2]; versus conventional NSAIDs studied such as ibuprofen, diclofenac and naproxen): significantly better
